Measured values reported in patent US20180042882A1, “C16:1n7-PALMITOLEATE AND DERIVATIVES THEREOF FOR TREATING OBESITY, PROMOTING WEIGHT LOSS, AND SUPPORTING WEIGHT MANAGEMENT” (Tersus Life Sciences, LLC, priority 2015, published 2018).

How the values were obtained:
bovine adipocytes [1] = assay: Fatty acid composition of bovine adipocyte cultures with exogenous palmitoleic acid (GLC); type: cell-based; details: P<0.05
From the text: (§1) Bovine adipocyte cultures were used to determine if addition of exogenous palmitoleic acid (C16:1n7) altered lipogenesis in vitro (Burns et al., 2012a). Adipocytes were harvested from the bovine cultures on day 6 and day 12 and analyzed using GLC and qPCR. […] In contrast, increasing concentrations of palmitoleic acid led to a decrease in palmitic acid (C16:0), stearic acid (C18:0), and oleic acid (C18:1) levels (P<0.05). FIG. 2 illustrates de novo lipogenesis and β-oxidation in an adipocyte after exogenous palmitoleic acid addition.
(§2) The desaturation ratio of C18:1 cis-9/C18:0 decreased (P<0.05) in response to increasing concentrations of palmitoleic acid, which was consistent with the observed decrease in SCD-1 mRNA expression.

ELOVL6 = assay: qPCR mRNA expression in bovine adipocyte cultures; type: cell-based; details: compared to untreated control cells; P<0.05
From the text: as §1, §2

FASN = assay: qPCR mRNA expression in bovine adipocyte cultures; type: cell-based; details: compared to untreated control cells; P<0.05
From the text: as §1, §2

SCD-1 = assay: qPCR mRNA expression in bovine adipocyte cultures; type: cell-based; details: compared to untreated control cells; P<0.05
From the text: as §1, §2

bovine adipocytes [2] = assay: Rate of lipogenesis with [1-13C]acetate in bovine adipocytes; type: cell-based; details: 2.5 mM [1-13C]acetate on day 6; compared to controls
From the text: as §2

[3] = test system: Acyl-CoA dehydrogenase, long chain (ACADL); assay: Expression of fatty acid oxidation genes in bovine adipocytes; type: cell-based; details: normalized to EIF3K and UXT; P≦0.07
From the text: (§3) The effect of palmitoleic acid supplementation on fatty acid oxidation in bovine adipocytes (see Kadegowda et al., 2011a) was examined by measuring the expression levels of Acyl-Coenzyme A oxidase 2 (ACOX2), Acyl-CoA dehydrogenase, long chain (ACADL), Phytanoyl-CoA 2-hydroxylase (PHYH), Caveolini (CAV1) and Adipose differentiation-related protein (ADEP). The geometric mean of Eukaryotic translation initiation factor 3, subunit k (EIF3K) and Ubiquitously expressed transcript (UXT) was used for normalization.

[4] = test system: Phytanoyl-CoA 2-hydroxylase (PHYH); assay: as above; type: cell-based; details: normalized to EIF3K and UXT
From the text: as §3

bovine adipocytes [5] = assay: Fatty acid levels and desaturation (13C18:0, GLC-MS) in fatty acid supplemented bovine adipocytes; type: cell-based; details: P<0.05
Method: In addition, cells were incubated with ^13C2 and ^13C18:0 on day 6 to estimate lipogenic and desaturation rates using GLC-MS.

CTP-1 = assay: Enzymes involved in β-oxidation after exogenous palmitoleic acid; type: cell-based, bovine; details: addition of exogenous palmitoleic acid
From the text: As such, C16:1n7-palmitoleate, derivatives thereof, pharmaceutically acceptable salts thereof, or a combination thereof, are useful in methods for reducing adipocyte hypertrophy and excess adipose tissue deposition.

[6] = Infusion of 13C16:1n7 in lambs, uptake and utilization; type: in vivo; details: 5 mg/kg level, intravenous infusion
Method: This level of palmitoleic acid supplementation was selected based on previous experiments where lambs were infused with varying levels (0, 2, or 5 mg/kg) of ^13C16:1n7 to assess uptake and utilization in adipose tissues. […] This 5 mg/kg level is based on intravenous infusion levels and thus is adjusted for estimated ruminal bypass and intestinal absorption rates for dietary monounsaturated fatty acids for this oral feeding study.

[7] = increasing concentrations of palmitoleic acid (50, 150 and 300 μM), day 6 and day 12
[8] = increasing concentrations of palmitoleic acid

CTP-1 (enzyme involved in β-oxidation) regulation (CTP-1): upregulates
concentrations of 13C16:1n7 in serum ([6]; lambs infused with 0, 2, or 5 mg/kg): greatest concentrations
Compound: CCCCCC/C=C\CCCCCCCC(=O)O [palmitoleic acid]
desaturation ratio of C18:1 cis-9/C18:0 (bovine adipocytes [1]; in response to increasing concentrations of palmitoleic acid): decreased
cis-11 vaccenic acid (C18:1c11) levels in adipocytes (bovine adipocytes [1]; [7]): linear increase
cis-13 eicosenoic acid (C20:1c13) levels in adipocytes (bovine adipocytes [1]; [7]): linear increase
total fatty acid levels in adipocytes (bovine adipocytes [1]; [7]): linear increase
Palmitoleic acid levels in adipocytes (bovine adipocytes [1]; increasing concentrations of palmitoleic acid (50, 150 and 300 μM), harvested day 6 and day 12): linear increase
oleic acid (C18:1) levels in adipocytes (bovine adipocytes [1]; [8]): decrease
palmitic acid (C16:0) levels in adipocytes (bovine adipocytes [1]; [8]): decrease
stearic acid (C18:0) levels in adipocytes (bovine adipocytes [1]; [8]): decrease
ELOVL6 mRNA expression levels (ELOVL6): reduction
FASN mRNA expression levels (FASN): reduction
SCD-1 mRNA expression levels (SCD-1): reduction
rate of lipogenesis (bovine adipocytes [2]): lower rate of lipogenesis
increase in ACADL expression [3]: 2.36 fold
increase in PHYH expression [4]: 95.5 fold
13C18:1 cis-9 levels (bovine adipocytes [5]; after 12 h of 13C18:0 incubation, compared with all other treatments): lower
C18:1 cis-9/C18:0 ratio (bovine adipocytes [5]; compared with all other treatments): lower
C16: levels in supplemented cells (bovine adipocytes [5]; compared with control cells): elevated
C18:1 cis-11 levels in supplemented cells (bovine adipocytes [5]; compared with control cells): elevated
C20:1 cis-13 levels in supplemented cells (bovine adipocytes [5]; compared with control cells): elevated
blood glucose levels ([6]; compared to control): altered
